Common to all, as to assay: DTP human tumour cell line panel, 48 h
The test system of test [1] is PC-3 prostate.
The test system of test [2] is SK-MEL-2 melanoma.
For test [3], the system named is COLO 205 colon.
The subject of test [4] is SN12C renal.
Test [5] has as its system HOP-62 NSCLC.
Test [6] relates to HOP-92 NSCLC.
Test [7] deals with NCI-H460 lung.
In test [8] the test system is SNB-19 CNS.
The test system of test [9] is SK-MEL-5 melanoma.
In test [10] the test system is OVCAR-3 ovarian.

Usually GI50 stands for the concentration giving 50% growth inhibition. What is called TGI is the concentration at which net growth stops.

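Cells were grown in 96-well plates and exposed to each compound for 48 hours at five concentrations; endpoints were interpolated linearly between bracketing concentrations, or set to the highest concentration if not reached. Abbreviation: GI50, concentration required for 50% inhibition of growth. TGI denotes the concentration required for complete inhibition of growth.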

Turning to `CC12CCC(=O)C(O1)C1C(=O)c3cc4ccccc4cc3C(=O)C12` (stereo unspecified), the GI50 is 16.8 µM in test [1]; 46.4 µM in [2]; 19.9 µM in [3]; 16.5 µM in test [4]; 45 µM in [5]; 13.9 µM in test [6]. Further, the results for the GI50 in test [7] and in [8] were 14 µM and 38.1 µM, respectively. Also, the TGI was 43.4 µM in test [1]; over 100 µM in test [2]; 47.1 µM in test [3]; 36.4 µM in test [4]; over 100 µM in [5]; 29.7 µM in test [6]. The TGI was 51 µM in test [7] and over 100 µM in test [8].
Take `COc1cc(Cn2cc3c(c2)-c2oncc2CC3)cc(OC)c1OC`: the 50% growth inhibitory concentration (GI50) is 0.0366 µM in test [9]; 0.0526 µM in test [1]; 7.2 µM in test [2]; 0.0332 µM in test [3]; 0.0435 µM in [4]; 0.0479 µM in [5]. For the same compound, the GI50 is 31 µM in [6], 0.034 µM in [7] and 0.0437 µM in test [8]. Besides, the total growth inhibition concentration (TGI) in test [9] is 0.195 µM; in test [1], over 100 µM; in test [2], 79.3 µM; in test [3] it was 0.0957 µM; in test [5], over 100 µM; in [6] it was over 100 µM. For the same compound, the TGI was 1.5 µM in [7] and over 100 µM in test [8].
With `c1ccc2[nH]c(-c3ccc(N4CCN(c5ccc(-c6nc7ccccc7[nH]6)cc5)CC4)cc3)nc2c1`, the GI50 in test [9] is over 100 µM; in test [1] it was over 100 µM; in test [3], over 100 µM; in test [4] it was over 100 µM; in [5], 11.4 µM; in test [6], over 100 µM. The GI50 in [7] is over 100 µM; in [10], over 100 µM; in [8], 10.5 µM. Further, the total growth inhibition concentration (TGI) is over 100 µM in test [9]; over 100 µM in [1]; over 100 µM in test [3]; over 100 µM in test [4]; 75.7 µM in test [5]; over 100 µM in test [6]. The concentration for total growth inhibition (TGI) in [7], in test [10] and in test [8] was over 100 µM throughout.
As to `COc1cc2cc(Oc3ccc(NC(=O)Nc4ccc(Cl)c(C(F)(F)F)c4)cc3)c(C)nc2cc1OCCN1CCCCC1`, the GI50 in test [9] was 1.65 µM; in test [1], 1.27 µM; in test [2] it was 1.87 µM; in [3], 1.65 µM; in test [4], 1.67 µM; in test [6], 1.09 µM. Besides, the GI50 in test [7] was 1.85 µM; in [10], 1.6 µM; in [8] it was 1.68 µM. In addition, the concentration for total growth inhibition (TGI) in [9] turned out to be 3.04 µM; in test [1], 2.69 µM; in test [2], 3.64 µM; in [3] it was 3.33 µM; in test [4], 3.26 µM; in [6], 2.41 µM. Besides, the concentration for total growth inhibition (TGI) in test [7] was determined as 3.47 µM; in test [10], 3.03 µM; in test [8], 3.19 µM.
On to `O=C(CCl)c1ccc([N+](=O)[O-])o1`, for which the GI50 in test [9] was 4.11 µM; in test [1] it was 2.15 µM; in test [2], 6.81 µM; in test [3], 1.73 µM; in test [4], 2.38 µM; in test [5] it was 7.58 µM. Also, the GI50 in test [7] is 10.3 µM; in [10], 1.25 µM; in test [8], 10.6 µM. Moreover, the TGI in test [9] amounted to 15.7 µM; in [1], 6.34 µM; in test [2] it was 27.4 µM; in test [3] it was 3.72 µM; in test [4] it was 7.27 µM; in test [5] it was 17.6 µM. The TGI was 28.1 µM in test [7], 2.58 µM in [10] and 23.4 µM in test [8].
Consider `CN(C)c1ccc2nc3ccc(=[N+](C)C)cc-3oc2c1`, for which the GI50 in [9] is 0.47 µM; in [1], 0.52 µM; in test [2], 2.38 µM; in test [3] it was 0.391 µM; in [4], 0.892 µM; in test [5], 3.58 µM. For the same compound, the values for the GI50 in [7], in test [10] and in test [8] were 2.82 µM, 0.4 µM and 2.49 µM, respectively. Also, the concentration for total growth inhibition (TGI) in test [9] was 1.65 µM; in test [1], over 100 µM; in test [2], 11.1 µM; in test [3], 1.68 µM; in [4] it was 3.5 µM; in test [5], 50.5 µM. The values for the TGI in test [7], in [10] and in [8] were over 100 µM, 5.09 µM and over 100 µM, respectively.
For `CC[C@H](Nc1nc(N)nc(C)c1C#N)c1nc2cccc(CN(C)c3ncc(C(=O)NO)cn3)c2c(=O)n1-c1ccccc1`, the concentration for 50% growth inhibition (GI50) is 0.391 µM in [9]; 1.33 µM in test [1]; 1.35 µM in test [2]; 1.11 µM in test [4]; 0.804 µM in [5]; 0.204 µM in test [6]. Moreover, the GI50 is 1.15 µM in [7], 0.761 µM in [10] and 0.827 µM in test [8]. Also, the concentration for total growth inhibition (TGI) in test [9] came to 1.12 µM; in test [1], 8.14 µM; in test [2] it was 8.75 µM; in test [4] it was 6.03 µM; in test [5] it was 4.42 µM; in [6], 1.52 µM. Also, the values for the TGI in test [7], in test [10] and in [8] were 11.2 µM, 2.28 µM and 6.4 µM, respectively.
Regarding `O=C1C(Cl)=C(N/N=c2/[nH][nH]/c(=N/NC3=C(Cl)C(=O)c4ccccc4C3=O)c3ccccc23)C(=O)c2ccccc21`, the GI50 in [9] is 14.1 µM; in test [1], 8.64 µM; in [2] it was 18.1 µM; in test [3] it was 16.1 µM; in test [4] it was 15 µM; in [5] it was 10.2 µM. Also, the GI50 in test [7] is 19.7 µM; in [10] it was 15.6 µM; in [8] it was 14.6 µM. The concentration for total growth inhibition (TGI) in test [9] was found to be 29.3 µM; in test [1] it was 28.7 µM; in test [2] it was 35.9 µM; in test [3], 32.9 µM; in test [4] it was 29.5 µM; in [5] it was 23.2 µM. Further, the total growth inhibition concentration (TGI) in test [7] turned out to be 49.5 µM; in test [10], 36.4 µM; in [8], 31.1 µM.
